Data taken from patent US20090176817A1, “Method of Treatment of Diarrhea-Predominant Irritable Bowel Syndrome in a Subject” (priority 2005, published 2009).
Like-named read-outs stand apart in the source and are kept apart here.

Experiments:
[1] = both, human, in vivo
Procedure: Two randomized, double-blind, placebo controlled, balanced incomplete block design, crossover studies evaluated the single- and multiple-dose pharmacokinetics of oral cilansetron over a 8 mg to 32 mg dose range. In both studies, subjects were randomized to receive two of three treatments during 2 treatment periods. In one study (12 male and 13 female subjects, aged 23 to 36 years), subjects received 8 mg cilansetron, 16 mg cilansetron, or placebo, while in another study (12 males and 13 females, aged 23 to 41 years), subjects received 16 mg cilansetron, 32 mg cilansetron, or placebo. During each treatment period, subjects received a single dose of their assigned treatment on the first day, followed by a 3-day washout, after which they received the same treatment TID for 5 days.
There was a 5-6 day washout period between treatment periods. Doses on the mornings of pharmacokinetic days were administered under fasted conditions. Serial blood sampling and urine collection was performed up to 12 hours following morning dosing on the first day (single dose) and on the last multiple dosing day of each treatment period, and cilansetron pharmacokinetic parameters were evaluated.
In two randomized, double-blind, placebo controlled, balanced incomplete block design, crossover studies evaluating the single- and multiple-dose pharmacokinetics of oral cilansetron over a 8 mg to 32 mg dose range, subjects were randomized to receive two of three treatments during 2 treatment periods. In Study S.241.1.101; (12 male and 13 female subjects, aged 23 to 36 years), subjects received 8 mg cilansetron, 16 mg cilansetron, or placebo, while in Study S.24 1.1.102; (12 males and 13 females, aged 23 to 41 years), subjects received 16 mg cilansetron, 32 mg cilansetron, or placebo. During each treatment period, subjects received a single dose of their assigned treatment on the first day, followed by a 3-day washout, after which they received the same treatment TID for 5 days. There was a 5-6 day washout period between treatment periods. Doses on the mornings of pharmacokinetic days were administered under fasted conditions. Serial blood sampling and urine collection was performed up to 12 hours following morning dosing on the first day (single dose) and on the last multiple dosing day of each treatment period, and cilansetron pharmacokinetic parameters were evaluated.

IBS patients = test: Study K.241.5016: colonic visceral perception; type: in vivo, human
Procedure: The effect of cilansetron on colonic visceral perception was evaluated in a randomized, doubleblind, placebo-controlled, 2-way crossover study in 16 male and female IBS patients (ITT population), aged 28-66 years. Subjects received single IV doses of placebo or cilansetron 16 mg as 30-minute infusions on two consecutive study days, with no washout between the study days. Colonic distension tests were performed just prior to dosing and after completion of the infusion during each treatment. An electronic barostat was used to produce distensions (successive 4 mmHg increases every 5 minutes, up to a sensation of abdominal pain or a maximum of 40 mmHg). The primary efficacy parameter was the mean distension pressure inducing a sensation of abdominal pain. Secondary effect parameters were the mean distension pressure inducing a sensation of abdominal discomfort, and the response rate, defined as the number of patients experiencing no abdominal pain at the maximum pressure of 40 mmHg. The primary and secondary parameters were compared between cilansetron and placebo treatments using an ANOVA.

healthy subjects = test: Study K.241.5012: gastric emptying time, healthy young subjects; type: in vivo, human; conditions: mean (SD), not significant vs placebo
From the text: The effect of cilansetron on gastric emptying time and colonic transit time has been studied in 1 clinical study in healthy young subjects and 2 studies in elderly subjects. For measurement of gastric emptying time, breath samples for the determination of the ^12C/^13C ratio were taken on the last day of each treatment period immediately after ingestion of a ^13C labeled meal. The patients' breath was collected in separate 15-minute intervals, for four hours in total. ^13CO2 measurements were performed with an isotope ratio mass spectrometer. The half-life (TK) and lag-time (Tlag), which describe the duration of gastric emptying, were used as the primary parameters to evaluate gastric emptying time. In all 3 studies, colonic transit time was measured by administration of radio-opaque markers for the last six days of each treatment period, followed by a single abdominal X-ray image at 24 hours after ingestion of the last set of markers. The numbers of markers within the colon were used to calculate segmental (right colon, left colon, and rectosigmoid) and total colonic transit time.
Study K.241.5013 was a randomized, double-blind, placebo-controlled, 3-way crossover study in 12 healthy male subjects (ITT population), aged 20-27 years. Subjects received cilansetron 4 mg, cilansetron 8 mg, or placebo orally TID for 14 days during each of the treatment periods, with a 14-day washout between periods. The primary efficacy parameter was the total mean colonic transit time during each treatment and the secondary parameters were the segmental colonic transit times and the gastric emptying measurements. A one-sided Dunnett t-test procedure was used to compare efficacy parameters between the cilansetron and placebo treatments.

[2] = male, human, in vivo
Procedure: Subjects were treated with a single oral dose of cilansetron 8 mg (tablet) on Day 1, followed by 8 mg TID for 5 days (Days 2-6) and a single 8 mg dose on the morning of Day 7. Young subjects ranged in age from 19-45 years, and elderly from 66-79 years. Serial blood samples were collected up to 24 hours postdose on Days 1 and 7, and cilansetron pharmacokinetic parameters were calculated. Doses on pharmacokinetic sampling days were administered under fasted conditions.
Young subjects ranged in age from 19-45 years, and elderly from 66-79 years. Serial blood samples were collected up to 24 hours postdose on Days 1 and 7, and cilansetron pharmacokinetic parameters were evaluated. Doses on pharmacokinetic sampling days were administered under fasted conditions.

clinical [3] = conditions: male, human, in vivo; for CL renal: CLr; for half-life: T½
Procedure: Subjects were randomized to receive cilansetron 8 mg IV solution (30-minute infusion), cilansetron 8 mg oral solution, and a cilansetron 8 mg capsule during the three treatment periods, with a 23-day washout between periods. All doses were administered under fasted conditions. […] Table 2.7.1.2.3 presents descriptive statistics for the pharmacokinetic parameters of cilansetron capsule and oral solution, and the results of statistical comparisons between treatments (capsule versus solution). […] Median Tmax was also similar between the capsule and oral solution.
Subjects were randomized to receive cilansetron 8 mg IV solution (30-minute infusion), cilansetron 8 mg oral solution, and a cilansetron 8 mg capsule during the three treatment periods, with a 23-day washout between periods. All doses were administered under fasted conditions. […] Its low bioavailability, complete absorption from the GI tract, and its 4.5- to 5-fold higher apparent oral clearance in comparison to systemic clearance indicate that cilansetron is a high extraction drug and undergoes significant first pass metabolism on oral administration. Intersubject % CVs were higher for oral (47-73%) than for IV administration (19-20%), reflecting increased variability due to oral absorption. Intrasubject % CVs ranged from 37-47% following oral and IV administration.
Cilansetron concentrations in this study were also modeled using a standard 2-compartment model for the IV data and a 1-compartment model for the oral data (using TOPFIT 2.0). The results from modeling are compared to the results obtained from non-compartmental analysis in Table 2.7.2.3.10 below, for the oral and IV solution. The results obtained by the two methods are very similar.

clinical [4] = conditions: both, human, in vivo, po, 16 mg
Procedure: In a randomized, double-blind, placebo-controlled, 2-way crossover study in 9 male and 9 female healthy subjects (ITT population, aged 21-39 years), subjects were randomized to receive 2 treatments (cilansetron 16 mg tablet and placebo) during the 2 treatment periods. During each treatment period, subjects received a single dose of their assigned treatment on the first day (Day 1), after which they received the same treatment TID for 4 days (Days 2-5). There was a 10-day washout period between treatment periods. Subjects were fasted for at least 2 hours before and following each dose, and heavy physical activity was restricted. Serial 12-lead ECGs was recorded up to 24 hours following dosing on Day 1 (single dose) and on the last day (Day 5) of each treatment period. Heart rate and ECG intervals (RR, PR, QRS, and QT) were measured electronically, but were manually verified and corrected if needed by the investigator. QT intervals were corrected (QTc) electronically for heart rate using the Bazett's correction. Mean and maximum QTc intervals were calculated over different time intervals postdose and were compared between treatments using an ANOVA accounting for sequence, gender, subject within sequence and gender, period, and treatment effects.

[5] = 16 mg single IV dose, ANOVA, not significant
[6] = 16 mg single IV dose, postdose minus predose, IBS patients, mean (SD)

Cc1nccn1C[C@H]1CCc2c(c3cccc4c3n2CCC4)C1=O [Cilansetron, (R)-(−)-4,5,6,8,9,10-hexahydro-10-[(2-methyl-1H-imidazol-1-yl)methyl]-11H-pyrido-[3,2,1-jk]-carbazol-11-one]
Dose excreted unchanged in urine [1]: less than 1% | Intrasubject % CV [1]: 23-51% | Mean AUC(0-τ) (multiple dose) to AUC(0-inf) (single dose) ratios [1]: 81-94% | AUC Ratio (90% CI) ([1]; 8 mg): 84 (46, 154) % | Cmax Ratio (90% CI) ([1]; 8 mg): 82 (42, 160) % | DN-AUC ([1]; 8 mg): 14.0 (49) ng · h/mL | AUC Ratio (90% CI) ([1]; 16 mg): 58 (32, 103) % | Cmax Ratio (90% CI) ([1]; 16 mg): 54 (29, 103) % | AUC Ratio (90% CI) ([1]; po, 8 mg): 81 (46, 145) % | Cmax Ratio (90% CI) ([1]; po, 8 mg): 77 (46, 128) % | AUC Ratio (90% CI) ([1]; po, 16 mg): 82 (47, 142) % | Cmax Ratio (90% CI) ([1]; po, 16 mg): 79 (49, 130) % | Responders (no abdominal pain at 40 mmHg) (IBS patients; 16 mg IV): 1 of 12 | Pressure inducing abdominal pain, Mean Difference to Placebo (IBS patients; [5]): −1.33 mmHg | Pressure inducing abdominal sensation, Mean Difference to Placebo (IBS patients; [5]): −0.67 mmHg | Pressure inducing abdominal pain, Difference Postdose (IBS patients; [6]): 3.67 (4.66) mmHg | Pressure inducing abdominal sensation, Difference Postdose (IBS patients; [6]): 2.67 (3.55) mmHg | gastric emptying time Tlag (healthy subjects; 4 mg TID oral 14 days): 1.70 (0.22) hours | gastric emptying time T½ (healthy subjects; 4 mg TID oral 14 days): 2.46 (0.35) hours | gastric emptying time Tlag (healthy subjects; 8 mg TID oral 14 days): 1.63 (0.30) hours | gastric emptying time T½ (healthy subjects; 8 mg TID oral 14 days): 2.38 (0.42) hours | AUC(0-inf) [2]: 252 (123) ng · h/mL | AUC(0-inf) ratio Oral Capsule/IV Soln (clinical [3]): 25 (19, 32) % | AUC(0-inf) ratio Oral Soln/IV Soln (clinical [3]): 26 (20, 34) % | AUC(0-last) ratio Oral Capsule/IV Soln (clinical [3]): 23 (18, 31) % | AUC(0-last) ratio Oral Soln/IV Soln (clinical [3]): 24 (18, 32) % | Intrasubject % CV (clinical [3]): 37-47% | % Dose (urine) (clinical [3]; iv): 0.41 (96) % | AUC(0-inf) (clinical [3]; iv): 222 (42) ng · h/mL | CL (clinical [3]; iv): 619 (108) mL/min | Intersubject % CV (clinical [3]; iv): 19-20% | T½ (clinical [3]; iv): 1.33 (0.32) h | Vss (clinical [3]; iv): 58 (11) L | AUC(0-inf) (clinical [3]; iv, 8 mg, AUC(0-inf)): 234 ng·h/mL | AUC(0-t) (clinical [3]; iv, 8 mg, AUC(0-last)): 228 ng·h/mL | clearance (clinical [3]; iv, 8 mg, CL): 590 mL/min | CL renal (clinical [3]; iv, 8 mg): 2.3 mL/min | clearance (clinical [3]; iv, 8 mg, Systemic plasma clearance): ~600 mL/min | half-life (clinical [3]; iv, 8 mg): 79.8 min | Vd (clinical [3]; iv, 8 mg, Vss): 55.6 L | Vd (clinical [3]; iv, 8 mg, Vz): 66.7 L | AUC(0-inf) (clinical [3]; iv, AUC (0-inf)): 234 ng·h/mL | clearance (clinical [3]; iv, CL): 590 mL/min | Cmax (clinical [3]; iv, Cmax): 149 ng/mL | Vd (clinical [3]; iv, Steady-state volume of distribution (Vss)): ~56 L | Tmax (clinical [3]; iv, Tmax): 33 min | half-life (clinical [3]; iv): 79.8 min | Vd (clinical [3]; iv, Vss): 56 L | AUC (0-inf) ratio capsule:oral solution (clinical [3]; po): 93% | AUC (0-last) ratio capsule:oral solution (clinical [3]; po): 96% | AUC(0-inf) (clinical [3]; po): 69 (49) ng · h/mL | Apparent oral clearance higher than systemic clearance (clinical [3]; po): 4.5-5 fold | Cmax (clinical [3]; po): 29 (18) ng/mL | Cmax ratio capsule:oral solution (clinical [3]; po): 88% | Intersubject % CV (clinical [3]; po): 47-73% | Tmax (clinical [3]; po): 0.76 (0.40) h | T½ (clinical [3]; po): 1.14 (0.27) h | bioavailability (clinical [3]; po): 25% | AUC(0-inf) (clinical [3]; po, 8 mg): 73.8 (69) ng · h/mL | AUC(0-last) (clinical [3]; po, 8 mg): 69.3 (73) ng · h/mL | CLr (clinical [3]; po, 8 mg): 2.37 (95) mL/min | Cmax (clinical [3]; po, 8 mg): 39.2 (67) ng/mL | Tmax (clinical [3]; po, 8 mg): 0.83 (0.33, 1.25) h | T½ (clinical [3]; po, 8 mg): 1.47 (21) h | Vz/F (clinical [3]; po, 8 mg): 308 (79) L | AUC(0-inf) (clinical [3]; po, 8 mg, AUC (0-inf)): 66 ng·h/mL | AUC(0-t) (clinical [3]; po, 8 mg, AUC (0-last)): 62.1 ng·h/mL | CL renal (clinical [3]; po, 8 mg): 2.92 mL/min | Cmax (clinical [3]; po, 8 mg, Cmax): 31.4 ng/mL | Tmax (clinical [3]; po, 8 mg, Tmax): 60 min | half-life (clinical [3]; po, 8 mg): 76.8 min | Vd/F (clinical [3]; po, 8 mg, Vz/F): 342 L | AUC(0-inf) (clinical [3]; po, AUC (0-inf)): 74 ng·h/mL | Cmax (clinical [3]; po, Cmax): 39 ng/mL | Tmax (clinical [3]; po, Tmax): 45.6 min | half-life (clinical [3]; po): 88.2 min | Tmax (clinical [4]): 3 h
